# ChEMBL document CHEMBL3046521, “Synthesis and antitumor activity of (4-hydroxyphenyl)[5-substituted alkyl/aryl)-2-thioxo-1,3,4-thiadiazol-3-yl]methanone and [(3,4-disubstituted)-1,3-thiazol-2ylidene]-4-hydroxybenzohydrazide” (2011)
# Key:
# Format in all cases: functional
# HT-29 = experiment: Cytotoxicity against Homo sapiens (human) HT-29 cells after 48 hr by sulforhodamine B assay; details: HT-29, 48 h
# HCT-15 = experiment: Cytotoxicity against Homo sapiens (human) HCT15 cells after 48 hr by sulforhodamine B assay; details: HCT-15, 48 h
# COLO 205 = experiment: Cytotoxicity against Homo sapiens (human) COLO205 cells after 48 hr by sulforhodamine B assay; details: COLO 205, 48 h
# NCI-H23 = experiment: Cytotoxicity against Homo sapiens (human) NCI-H23 cells after 48 hr by sulforhodamine B assay; details: NCI-H23, 48 h
# HOP-62 = experiment: Cytotoxicity against Homo sapiens (human) HOP62 cells after 48 hr by sulforhodamine B assay; details: HOP-62, 48 h
# A549 = experiment: Cytotoxicity against Homo sapiens (human) A549 cells after 48 hr by sulforhodamine B assay; details: A549, 48 h
# [1] = Cytotoxicity against Homo sapiens (human) […] cells after 48 hr by sulforhodamine B assay
# K562 = experiment: Cytotoxicity against Homo sapiens (human) K562 cells after 48 hr by sulforhodamine B assay; details: K562, 48 h
# CCRF-CEM = experiment: Cytotoxicity against Homo sapiens (human) CCRF-CEM cells after 48 hr by sulforhodamine B assay
# A498 = experiment: Cytotoxicity against Homo sapiens (human) A498 cells after 48 hr by sulforhodamine B assay; details: A498, 48 h
# MDA-MB-468 = experiment: Cytotoxicity against Homo sapiens (human) MDA-MB-468 cells after 48 hr by sulforhodamine B assay; details: MDA-MB-468, 48 h
# Hs-578T = experiment: Cytotoxicity against Homo sapiens (human) Hs 578T cells after 48 hr by sulforhodamine B assay
# MDA-MB-231 = experiment: Cytotoxicity against Homo sapiens (human) MDA-MB-231 cells after 48 hr by sulforhodamine B assay; details: MDA-MB-231, 48 h
# DU-145 = experiment: Cytotoxicity against Homo sapiens (human) DU145 cells after 48 hr by sulforhodamine B assay; details: DU-145, 48 h
# UO-31 = experiment: Cytotoxicity against Homo sapiens (human) UO31 cells after 48 hr by sulforhodamine B assay; details: UO-31, 48 h
# TK-10 = experiment: Cytotoxicity against Homo sapiens (human) TK10 cells after 48 hr by sulforhodamine B assay; details: TK-10, 48 h
# ACHN = experiment: Cytotoxicity against Homo sapiens (human) ACHN cells after 48 hr by sulforhodamine B assay
# SK-OV-3 = experiment: Cytotoxicity against Homo sapiens (human) SKOV3 cells after 48 hr by sulforhodamine B assay; details: SK-OV-3, 48 h
# OVCAR-3 = experiment: Cytotoxicity against Homo sapiens (human) OVCAR3 cells after 48 hr by sulforhodamine B assay; details: OVCAR-3, 48 h
# IGROV-1 = experiment: Cytotoxicity against Homo sapiens (human) IGROV1 cells after 48 hr by sulforhodamine B assay; details: IGROV-1, 48 h
# UACC-257 = experiment: Cytotoxicity against Homo sapiens (human) UACC257 cells after 48 hr by sulforhodamine B assay; details: UACC-257, 48 h
# UACC-62 = experiment: Cytotoxicity against Homo sapiens (human) UACC62 cells after 48 hr by sulforhodamine B assay; details: UACC-62, 48 h
# SK-MEL-5 = experiment: Cytotoxicity against Homo sapiens (human) SK-MEL-5 cells after 48 hr by sulforhodamine B assay; details: SK-MEL-5, 48 h
# SK-MEL-28 = experiment: Cytotoxicity against Homo sapiens (human) SK-MEL-28 cells after 48 hr by sulforhodamine B assay; details: SK-MEL-28, 48 h
# M14 = experiment: Cytotoxicity against Homo sapiens (human) M14 cells after 48 hr by sulforhodamine B assay; details: M14, 48 h
# Malme-3M = experiment: Cytotoxicity against Homo sapiens (human) MALME-3M cells after 48 hr by sulforhodamine B assay
# SNB-75 = experiment: Cytotoxicity against Homo sapiens (human) SNB75 cells after 48 hr by sulforhodamine B assay; details: SNB-75, 48 h
# SF-295 = experiment: Cytotoxicity against Homo sapiens (human) SF295 cells after 48 hr by sulforhodamine B assay; details: SF-295, 48 h
# SW-620 = experiment: Cytotoxicity against Homo sapiens (human) SW620 cells after 48 hr by sulforhodamine B assay; details: SW-620, 48 h
smiles,measurement,setting,value
O=C(c1ccc(O)cc1)n1nc(-c2c(Cl)cccc2Cl)sc1=S,GI50,HT-29,8.32 µM
same,LC50,HT-29,53.7 µM
same,TGI,HT-29; read-out: pTGI (converted),22.9 µM
same,GI50,HCT-15,6.46 µM
same,LC50 (concentration killing 50% of cells),HCT-15,> 100 µM
same,TGI,HCT-15; read-out: pTGI (converted),32.4 µM
same,GI50,COLO 205,13.5 µM
same,LC50,COLO 205,64.6 µM
same,TGI,COLO 205; read-out: pTGI (converted),29.5 µM
same,GI50,NCI-H23,12.6 µM
same,LC50,NCI-H23,> 100 µM
same,TGI,NCI-H23; read-out: pTGI (converted),53.7 µM
same,GI50,HOP-62,18.6 µM
same,LC50,HOP-62,> 100 µM
same,TGI,HOP-62; read-out: pTGI (converted),43.7 µM
same,GI50,A549,12.3 µM
same,LC50,A549,> 100 µM
same,TGI,A549; read-out: pTGI (converted),58.9 µM
same,GI50,[1],7.59 µM
same,LC50,[1],> 100 µM
same,TGI,[1]; read-out: pTGI (converted),60.3 µM
same,GI50,K562,3.39 µM
same,LC50,K562,> 100 µM
same,TGI,K562; read-out: pTGI (converted),28.8 µM
same,GI50,CCRF-CEM,9.55 µM
same,LC50,CCRF-CEM,> 100 µM
same,TGI,CCRF-CEM; read-out: pTGI,> 100 µM
same,GI50,A498,2340 nM
same,CC50,A498; read-out: pLC50 (the source's name) (converted),53.7 µM
same,TGI,A498; read-out: pTGI (converted),17 µM
same,GI50,MDA-MB-468,8.71 µM
same,LC50,MDA-MB-468,> 100 µM
same,TGI,MDA-MB-468; read-out: pTGI (converted),91.2 µM
same,GI50,Hs-578T,29.5 µM
same,LC50,Hs-578T,> 100 µM
same,TGI,Hs-578T; read-out: pTGI (converted),89.1 µM
same,GI50,MDA-MB-231,13.2 µM
same,LC50,MDA-MB-231,> 100 µM
same,TGI,MDA-MB-231; read-out: pTGI (converted),60.3 µM
same,GI50,DU-145,5.89 µM
same,LC50,DU-145,79.4 µM
same,TGI,DU-145; read-out: pTGI (converted),29.5 µM
same,GI50,UO-31,9.33 µM
same,LC50,UO-31,> 100 µM
same,TGI,UO-31; read-out: pTGI,> 100 µM
same,GI50,TK-10,4.47 µM
same,LC50,TK-10,> 100 µM
same,TGI,TK-10; read-out: pTGI (converted),42.7 µM
same,GI50,ACHN,7.76 µM
same,LC50,ACHN,> 100 µM
same,TGI,ACHN; read-out: pTGI (converted),41.7 µM
same,GI50,SK-OV-3,17.4 µM
same,LC50,SK-OV-3,> 100 µM
same,TGI,SK-OV-3; read-out: pTGI (converted),44.7 µM
same,GI50,OVCAR-3,6.17 µM
same,LC50,OVCAR-3,67.6 µM
same,TGI,OVCAR-3; read-out: pTGI (converted),28.8 µM
same,GI50,IGROV-1,12.9 µM
same,LC50,IGROV-1,> 100 µM
same,TGI,IGROV-1; read-out: pTGI (converted),89.1 µM
same,GI50,UACC-257,14.1 µM
same,LC50,UACC-257,> 100 µM
same,TGI,UACC-257; read-out: pTGI (converted),41.7 µM
same,GI50,UACC-62,9.55 µM
same,LC50,UACC-62,58.9 µM
same,TGI,UACC-62; read-out: pTGI (converted),24 µM
same,GI50,SK-MEL-5,10.7 µM
same,LC50,SK-MEL-5,56.2 µM
same,TGI,SK-MEL-5; read-out: pTGI (converted),24.5 µM
same,GI50,SK-MEL-28,16.2 µM
same,LC50 (concentration killing 50% of cells),SK-MEL-28,87.1 µM
same,TGI,SK-MEL-28; read-out: pTGI (converted),37.2 µM
same,GI50,M14,8.91 µM
same,LC50,M14,67.6 µM
same,TGI,M14; read-out: pTGI (converted),25.7 µM
same,GI50,Malme-3M,29.5 µM
same,LC50,Malme-3M,> 100 µM
same,TGI,Malme-3M; read-out: pTGI (converted),49 µM
same,GI50,SNB-75,16.6 µM
same,LC50,SNB-75,> 100 µM
same,TGI,SNB-75; read-out: pTGI (converted),50.1 µM
same,GI50,SF-295,5.13 µM
same,LC50,SF-295,> 100 µM
same,TGI,SF-295; read-out: pTGI (converted),29.5 µM
same,GI50,SW-620,12 µM
same,LC50,SW-620,87.1 µM
same,TGI,SW-620; read-out: pTGI (converted),31.6 µM
